Results as given in patent publication US20140051679A1, “KINASE INHIBITORS AND METHOD OF TREATING CANCER WITH SAME” (UNIVERISTY HEALTH NETWORKS, priority 2011, published 2014).

What was measured:
[1] = system: OVCAR-3 ovarian cancer cells; experiment: Cell growth inhibition, Sulforhodamine B assay, OVCAR-3; assay type: cell-based; conditions: Homo sapiens, 120 h, 5 days culture, SRB assay, read-out: Cell Line GI50 Range OVCAR-3
[2] = target: T1, human PLK4 (Homo sapiens, UniProt O00444); experiment: PLK4 inhibition assay (indirect ELISA); assay type: biochemical; conditions: GST-PLK4 4 nM, 15 μM ATP; read-out: IC50 Ranges PLK4
T1 construct: amino terminal GST fusion of residues 1-391 of human PLK4; made in house; host or cells: E. coli
T1 sequence (O00444 1-391): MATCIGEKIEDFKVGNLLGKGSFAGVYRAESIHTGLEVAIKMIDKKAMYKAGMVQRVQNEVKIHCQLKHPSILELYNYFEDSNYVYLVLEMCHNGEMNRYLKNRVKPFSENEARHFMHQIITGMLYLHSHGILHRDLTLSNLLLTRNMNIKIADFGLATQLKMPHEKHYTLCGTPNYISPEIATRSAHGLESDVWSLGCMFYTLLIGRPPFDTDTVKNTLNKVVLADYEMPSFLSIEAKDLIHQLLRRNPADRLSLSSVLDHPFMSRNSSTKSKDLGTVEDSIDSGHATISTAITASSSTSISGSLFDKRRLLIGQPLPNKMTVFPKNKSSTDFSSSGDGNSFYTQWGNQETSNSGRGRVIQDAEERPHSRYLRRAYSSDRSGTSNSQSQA
Procedure, shortened: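 Dephosphorylated GST-tagged human PLK4 (residues 1-391, E. coli), 4 nM, preincubated 15 min with compound, then reacted 30 min with 15 μM ATP on MBP-coated plates (50 mM HEPES pH 7.5, 10 mM MgCl2, 0.01% Brij 35). Phospho-MBP detected by antibody ELISA at 450 nm. Tested at 10 μM or 10-point titrations; IC50 from 4-parameter logistic fit.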

[3] = system: MDA-MB-231 breast cancer cells; experiment: Cell growth inhibition, Sulforhodamine B assay, MDA-MB-231; assay type: cell-based; conditions: Homo sapiens, 120 h, 5 days culture, SRB assay, read-out: Cell Line GI50 Range MDA-MB-231
[4] = system: HT29 colon cancer cells; experiment: Cell growth inhibition, Sulforhodamine B assay, HT29; assay type: cell-based; conditions: Homo sapiens, HT-29, 120 h, 5 days culture, SRB assay, read-out: Cell Line GI50 Range HT29
[5] = target: T2, human TTK (Homo sapiens, UniProt P33981); experiment: TTK inhibition assay (indirect ELISA); assay type: biochemical; conditions: GST-TTK 0.68 nM, 16 μM ATP; read-out: IC50 Ranges TTK
T2 construct: amino terminal GST fusion of full length human TTK; purchased Invitrogen
T2 sequence (P33981 1-857): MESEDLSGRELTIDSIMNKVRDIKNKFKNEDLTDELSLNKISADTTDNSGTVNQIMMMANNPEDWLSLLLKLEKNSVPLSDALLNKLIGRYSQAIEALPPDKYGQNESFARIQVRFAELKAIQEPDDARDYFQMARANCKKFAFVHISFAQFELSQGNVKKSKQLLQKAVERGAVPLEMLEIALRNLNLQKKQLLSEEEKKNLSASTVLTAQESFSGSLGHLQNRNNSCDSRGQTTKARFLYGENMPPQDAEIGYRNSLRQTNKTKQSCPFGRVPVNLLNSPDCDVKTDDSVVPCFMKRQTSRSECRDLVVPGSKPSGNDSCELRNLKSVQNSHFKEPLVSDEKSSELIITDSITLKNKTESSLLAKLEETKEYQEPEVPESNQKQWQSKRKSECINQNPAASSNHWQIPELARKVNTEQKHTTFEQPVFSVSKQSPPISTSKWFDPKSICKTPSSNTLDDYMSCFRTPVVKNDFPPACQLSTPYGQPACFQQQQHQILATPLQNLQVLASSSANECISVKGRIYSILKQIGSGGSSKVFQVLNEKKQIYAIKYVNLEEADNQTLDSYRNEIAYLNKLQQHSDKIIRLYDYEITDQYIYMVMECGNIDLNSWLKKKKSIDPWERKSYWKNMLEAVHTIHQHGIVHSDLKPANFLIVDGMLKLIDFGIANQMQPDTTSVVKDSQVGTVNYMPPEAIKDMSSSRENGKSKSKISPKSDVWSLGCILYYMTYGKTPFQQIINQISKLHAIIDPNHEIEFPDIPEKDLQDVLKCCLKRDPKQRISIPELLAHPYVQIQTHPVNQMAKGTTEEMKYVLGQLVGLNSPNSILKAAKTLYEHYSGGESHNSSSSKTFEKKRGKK

[6] = system: MDA-MB-468 breast cancer cells; experiment: Cell growth inhibition, Sulforhodamine B assay, MDA-MB-468; assay type: cell-based; conditions: Homo sapiens, 120 h, 5 days culture, SRB assay, read-out: Cell Line GI50 Range MDA-MB-468
[7] = system: HCT116 colon cancer cells; experiment: Cell growth inhibition, Sulforhodamine B assay, HCT116; assay type: cell-based; conditions: Homo sapiens, HCT-116, 120 h, 5 days culture, SRB assay, read-out: Cell Line GI50 Range HCT116
[8] = target: T3, Aurora B (Homo sapiens, UniProt Q96GD4); experiment: Aurora B inhibition assay (Z-Lyte); assay type: biochemical; conditions: 28 nM Aurora B, 128 μM ATP; read-out: IC50 Ranges Aurora B
T3 construct: purchased Invitrogen PV3970
T3 sequence (Q96GD4 whole entry): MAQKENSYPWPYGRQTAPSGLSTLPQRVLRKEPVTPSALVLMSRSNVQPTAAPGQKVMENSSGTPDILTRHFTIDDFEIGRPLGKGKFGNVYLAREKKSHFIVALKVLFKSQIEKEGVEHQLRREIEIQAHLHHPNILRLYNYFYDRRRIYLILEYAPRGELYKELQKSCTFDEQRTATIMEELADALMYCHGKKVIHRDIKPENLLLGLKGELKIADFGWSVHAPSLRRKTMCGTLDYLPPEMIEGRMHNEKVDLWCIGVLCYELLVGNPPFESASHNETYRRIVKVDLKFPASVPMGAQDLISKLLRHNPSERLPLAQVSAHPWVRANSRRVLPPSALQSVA
Protocol: Aurora B inhibition was determined using the Z-Lyte assay kit from Invitrogen. The assay was performed using the recommended manufacturer's instructions with 128 μM ATP and 28 nM Aurora B (Invitrogen cat #PV3970). The % inhibition values were determined according to the manufacturer's directions and IC50 values were obtained using a non-linear 4 point logistic curve fit (XLfit4, IDBS)

SMILES | GI50 [1] | IC50 [2] | GI50 [3] | GI50 [4] | IC50 [5] | GI50 [6] | GI50 [7] | IC50 [8]
CC(C)N1CCC(Oc2ccc(-c3n[nH]c4ccc(NC(=O)C(c5ccsc5)N5CCCC5)cc34)cc2)CC1 (stereo not shown) [Example A30, N-(3-(4-((1-isopropylpiperidin-4-yl)oxy)phenyl)-1H-indazol-5-yl)-2-(pyrrolidin-1-yl)-2-(thiophen-3-yl)acetamide] | ≤ 5 µM | ≤ 5 µM | ≤ 5 µM | ≤ 5 µM | ≤ 5 µM | ≤ 5 µM | ≤ 5 µM | ≤ 5 µM
CN1CCC(Oc2ccc(-c3n[nH]c4ccc(NC(=O)C(c5ccsc5)N5CCCCC5)cc34)cc2)CC1 (stereo not shown) [Example A31, N-(3-(4-((1-methylpiperidin-4-yl)oxy)phenyl)-1H-indazol-5-yl)-2-(piperidin-1-yl)-2-(thiophen-3-yl)acetamide] | ≤ 5 µM | ≤ 5 µM | ≤ 5 µM | ≤ 5 µM | ≤ 5 µM | ≤ 5 µM | ≤ 5 µM | ≤ 5 µM
O=C(Nc1ccc2[nH]nc(-c3ccc(N4CCOCC4)cc3)c2c1)C(c1ccsc1)N1CCCCC1 (stereo not shown) [Example A32, N-(3-(4-morpholinophenyl)-1H-indazol-5-yl)-2-(piperidin-1-yl)-2-(thiophen-3-yl)acetamide] | 5 to 20 µM | ≤ 5 µM | 20 to 50 µM | ≤ 5 µM | ≤ 5 µM | ≤ 5 µM | ≤ 5 µM | ≤ 5 µM
O=C(Nc1ccc2[nH]nc(-c3ccc(OC4CCNCC4)c(Cl)c3)c2c1)C(c1ccsc1)N1CCCC1 (stereo not shown) [Example A34, N-(3-(3-chloro-4-(piperidin-4-yloxy)phenyl)-1H-indazol-5-yl)-2-(pyrrolidin-1-yl)-2-(thiophen-3-yl)acetamide] | ≤ 5 µM | ≤ 5 µM | ≤ 5 µM | ≤ 5 µM | ≤ 5 µM | ≤ 5 µM | ≤ 5 µM | ≤ 5 µM
CN1CCC(Oc2ccc(-c3n[nH]c4ccc(NC(=O)Nc5ccccc5Cl)cc34)cc2)CC1 [Example A62, 1-(2-chlorophenyl)-3-(3-(4-((1-methylpiperidin-4-yl)oxy)phenyl)-1H-indazol-5-yl)urea] | ≤ 5 µM | ≤ 5 µM | ≤ 5 µM | ≤ 5 µM | ≤ 5 µM | ≤ 5 µM | ≤ 5 µM | 
O=C(NC(c1ccccc1)C1CC1)c1ccc2[nH]nc(-c3ccc(N4CCOCC4)c(F)c3)c2c1 (stereo not shown) [Example A65, N-(cyclopropyl(phenyl)methyl)-3-(3-fluoro-4-morpholinophenyl)-1H-indazole-5-carboxamide] | 5 to 20 µM | ≤ 5 µM | ≤ 5 µM | ≤ 5 µM | ≤ 5 µM | ≤ 5 µM | ≤ 5 µM | 
O=C(Nc1ccc2[nH]nc(-c3ccc(N4CCOCC4)cc3)c2c1)Nc1ccccc1Cl [Example A66, 1-(2-chlorophenyl)-3-(3-(4-morpholinophenyl)-1H-indazol-5-yl)urea] | 5 to 20 µM | ≤ 5 µM | 5 to 20 µM | ≤ 5 µM | ≤ 5 µM | 5 to 20 µM | ≤ 5 µM | 

The next lines start with the values.

GI50 [1] | IC50 [2] | GI50 [3] | GI50 [4] | IC50 [5] | GI50 [6] | GI50 [7] | IC50 [8] | SMILES
5 to 20 µM | ≤ 5 µM | ≤ 5 µM | ≤ 5 µM | ≤ 5 µM | ≤ 5 µM | ≤ 5 µM | ≤ 5 µM | O=C(Nc1ccc2[nH]nc(-c3ccc(OC4CCNCC4)cc3)c2c1)C(c1ccsc1)N1CCCC1 (stereo not shown) [Example A28, N-(3-(4-(piperidin-4-yloxy)phenyl)-1H-indazol-5-yl)-2-(pyrrolidin-1-yl)-2-(thiophen-3-yl)acetamide]
20 to 50 µM | ≤ 5 µM | 5 to 20 µM | ≤ 5 µM | ≤ 5 µM | 5 to 20 µM | ≤ 5 µM |  | Cc1cc(-c2n[nH]c3ccc(C(=O)NC(c4ccccc4)C4CC4)cc23)ccc1N1CCOCC1 (stereo not shown) [Example A64, N-(cyclopropyl(phenyl)methyl)-3-(3-methyl-4-morpholinophenyl)-1H-indazole-5-carboxamide]
5 to 20 µM | ≤ 5 µM | ≤ 5 µM | ≤ 5 µM | ≤ 5 µM | ≤ 5 µM | ≤ 5 µM |  | CN1CCN(Cc2ccc(-c3n[nH]c4ccc(NC(=O)C(c5ccsc5)N5CCCC5)cc34)cc2)CC1 (stereo not shown) [Example A67, N-(3-(4-((4-methylpiperazin-1-yl)methyl)phenyl)-1H-indazol-5-yl)-2-(pyrrolidin-1-yl)-2-(thiophen-3-yl)acetamide]
≤ 5 µM | ≤ 5 µM | ≤ 5 µM | ≤ 5 µM | ≤ 5 µM | ≤ 5 µM | ≤ 5 µM |  | O=C(Nc1ccc2[nH]nc(-c3ccc(NC4CCCCC4)cc3)c2c1)C(c1ccsc1)N1CCCC1 (stereo not shown) [Example A68, N-(3-(4-(cyclohexylamino)phenyl)-1H-indazol-5-yl)-2-(pyrrolidin-1-yl)-2-(thiophen-3-yl)acetamide]
5 to 20 µM | ≤ 5 µM | ≤ 5 µM | ≤ 5 µM | ≤ 5 µM | ≤ 5 µM | ≤ 5 µM |  | CN1CCC(Oc2ccc(-c3n[nH]c4ccc(NC(=O)N5CCCc6ccccc65)cc34)cc2)CC1 [Example A73, N-(3-(4-((1-methylpiperidin-4-yl)oxy)phenyl)-1H-indazol-5-yl)-3,4-dihydroquinoline-1(2H)-carboxamide]
20 to 50 µM | ≤ 5 µM | 5 to 20 µM | ≤ 5 µM | ≤ 5 µM | ≤ 5 µM | ≤ 5 µM |  | CN1CCC(Oc2ccc(-c3n[nH]c4ccc(C(=O)NCC(C)(C)N5CCOCC5)cc34)cc2)CC1 [Example A74, N-(2-methyl-2-morpholinopropyl)-3-(4-((1-methylpiperidin-4-yl)oxy)phenyl)-1H-indazole-5-carboxamide]
5 to 20 µM | ≤ 5 µM | 5 to 20 µM | ≤ 5 µM | ≤ 5 µM | ≤ 5 µM | ≤ 5 µM |  | CN1CCC(Oc2ccc(-c3n[nH]c4ccc(C(=O)NCC(c5ccsc5)N5CCOCC5)cc34)cc2)CC1 (stereo not shown) [Example A75, 3-(4-((1-methylpiperidin-4-yl)oxy)phenyl)-N-(2-morpholino-2-(thiophen-3-yl)ethyl)-1H-indazole-5-carboxamide]
